This note sets out measurements from publication PMC10810651, “Discovery of novel and potent CDK8 inhibitors for the treatment of acute myeloid leukaemia” (Journal of Enzyme Inhibition and Medicinal Chemistry, 2024).

What is called inhibition is the percentage by which the read-out fell short of the control.

For one test, the target named is CDK8 (Homo sapiens, UniProt P49336). Briefly: CDK8 enzyme activity assay (ADP-Glo Kinase Assay). The following applies: means ± SD; for inhibition at 0.2 µM: CDK8, 200 nM, two experiments, read-out: Inhibition rate @ 200 nM (%); for IC50: three experiments. The class given is biochemical. The procedure: Some of them with high inhibition rates were further measured for their IC50 values. Compound SEL-120 34 A was selected as a positive control. [table] [table] page 14: CO2 atmosphere incubator for 24 h. Then, medium with compound at the concentrations of 100, 20, 4, 0.8, 0.016 μM was added into each well for another 48 h and incubated with CCK-8 (10 μL) for 2 h at 37 °C. The absorbance value at 450 nm was measured by the microplate reader (PerkinElmer Envision). 1.4 Kinase Assay The kinase inhibition was detected by ADP-Glo™ Kinase Assay (Promega) using a black 384-well plate. The active CDK8 kinase was diluted in mixture (5 ng enzyme, 0.5 μg substrate, 50 μM DTT, 1 μL reaction buffer and added ddH2O to 3 μL each well) and the final ATP concentrations of was 50 μM. After incubation at room temperature, ADP-Glo™ solution and kinase detection reagent was added. The data was collected by the microplate reader. 1.5 Cellular thermal shift assay HCT-116 cells were cultured in cell culture dishes and treated with 5 μM compound 12 for 4 h. HCT-116 cells were collected, washed by PBS and cell suspensions were divided into 12 PCR tubes equally. Then,11 tubes were heated at 37, […] After that, cells were broken by ultr asonic treatment and centrifuged at 12000 rpm for 20 min. The supernatant was analyzed by western blot. 1.6 Biotin-pulldown assay After co-treated with 2 μM biotinylated compound and compound 12 for 12 h, HCT-116 cells were lysed with NP-40 containing PMSF and centrifuged at 14000 r for 30 min at 4 °C. Then, 40 μL supernatant was used as the input by adding 10 μL 5×SDS loading buffer, and the remains were mixed with Streptavidin Agarose (Novex, Carlsbad, CA, USA). After 6 h incuba tion at 4 °C, the beads were washed three times using lysis buffer and resuspended in 2× SDS loading buffer. HEK -293T cells overexpressed flag -tagged CDK8 were treated using above method. The samples were analyzed by western blot.
CDK8, sequence (P49336 whole entry): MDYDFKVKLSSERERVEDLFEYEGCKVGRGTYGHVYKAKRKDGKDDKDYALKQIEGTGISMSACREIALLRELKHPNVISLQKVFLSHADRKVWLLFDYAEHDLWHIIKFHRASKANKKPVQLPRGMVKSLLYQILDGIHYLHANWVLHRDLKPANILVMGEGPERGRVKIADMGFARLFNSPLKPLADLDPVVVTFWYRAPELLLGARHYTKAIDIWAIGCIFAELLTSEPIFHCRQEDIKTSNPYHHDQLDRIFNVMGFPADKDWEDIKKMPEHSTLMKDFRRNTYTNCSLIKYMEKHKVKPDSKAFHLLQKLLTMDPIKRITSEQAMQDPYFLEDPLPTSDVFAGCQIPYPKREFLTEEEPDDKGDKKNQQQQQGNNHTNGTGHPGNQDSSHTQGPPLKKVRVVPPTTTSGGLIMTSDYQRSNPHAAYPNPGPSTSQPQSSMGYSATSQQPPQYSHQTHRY
CDK8, sequence (P24863 whole entry partner): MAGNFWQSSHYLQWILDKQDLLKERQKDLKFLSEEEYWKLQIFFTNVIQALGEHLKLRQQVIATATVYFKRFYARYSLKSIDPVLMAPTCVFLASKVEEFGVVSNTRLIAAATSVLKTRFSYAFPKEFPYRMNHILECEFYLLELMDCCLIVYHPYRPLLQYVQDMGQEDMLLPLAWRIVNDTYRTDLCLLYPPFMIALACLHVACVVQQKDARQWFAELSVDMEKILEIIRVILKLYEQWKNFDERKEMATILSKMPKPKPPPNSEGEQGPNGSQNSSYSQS
A general note: In ADP-Glo the light output rises with the ADP produced.

The test system of another test is molm-13. Kind of test: Antiproliferative CCK-8 assay, molm-13. The following applies: Homo sapiens; molm-13, CCK-8 assay, means ± SD; read-out: GC50 (the source's name). Format: cell-based. An excerpt:
(§1) Compounds12, 13 and 30 were selected for further cell activity assessments based on the enzymatic activity assessment results. molm-13 and MV4-11(acute myeloid lineage leukaemia cells), MGC-803 (gastric cancer cell), MDA-MB-231(breast cancer cell), A375 (melanoma cell), A549 (lung cancer cell), HCT-116, SW-480 and HT-29 (colorectal cancer cells) were selected to evaluate antitumor activity in vitro, GES-1 (gastric mucosal epithelial cell) was selected to evaluate toxicity in vitro.
(§2) CO2 atmosphere incubator for 24 h. Then, medium with compound at the concentrations of 100, 20, 4, 0.8, 0.016 μM was added into each well for another 48 h and incubated with CCK-8 (10 μL) for 2 h at 37 °C. The absorbance value at 450 nm was measured by the microplate reader (PerkinElmer Envision). […]

Another test has as its system MV4-11. Briefly: Antiproliferative CCK-8 assay, MV4-11. Format: cell-based. As to conditions: Homo sapiens; MV4-11, CCK-8 assay, means ± SD; read-out: GC50 (the source's name).
Excerpt: as §1, §2

For a further test, the system named is MGC-803. Briefly: Antiproliferative CCK-8 assay, MGC-803. The class given is cell-based. The following applies: Homo sapiens; MGC-803, CCK-8 assay, means ± SD; read-out: GC50 (the source's name).
Excerpt: as §1, §2
A general note: Formazan colour is commonly taken as a measure of viable cells.

For the next test, the system named is MDA-MB-231. Kind of test: Antiproliferative CCK-8 assay, MDA-MB-231. As to conditions: Homo sapiens; MDA-MB-231, CCK-8 assay, means ± SD; read-out: GC50 (the source's name). Format: cell-based.
Excerpt: as §1, §2

In a further test the test system is A375. Kind of test: Antiproliferative CCK-8 assay, A375. The class given is cell-based. As to conditions: Homo sapiens, A-375; A375, CCK-8 assay, means ± SD; read-out: GC50 (the source's name).
Excerpt: as §1, §2

A further test deals with A549. Kind of test: Antiproliferative CCK-8 assay, A549. The class given is cell-based. As to conditions: Homo sapiens; A549, CCK-8 assay, means ± SD; read-out: GC50 (the source's name).
Excerpt: as §1, §2

A further test concerns HCT-116. Kind of test: Antiproliferative CCK-8 assay, HCT-116. As to conditions: Homo sapiens; HCT-116, CCK-8 assay, means ± SD; read-out: GC50 (the source's name). The class given is cell-based.
Excerpt: as §1, §2

For another test, the system named is SW480. Briefly: Antiproliferative CCK-8 assay, SW480. Format: cell-based. The following applies: Homo sapiens; SW480, CCK-8 assay, means ± SD; read-out: GC50 (the source's name).
Excerpt: as §1, §2

The test system of another test is HT-29. Briefly: Antiproliferative CCK-8 assay, HT-29. The following applies: Homo sapiens; HT-29, CCK-8 assay, means ± SD; read-out: GC50 (the source's name). The class given is cell-based.
Excerpt: as §1, §2

The subject of another test is GES-1. Kind of test: In vitro toxicity CCK-8 assay, GES-1. Format: cell-based. As to conditions: Homo sapiens, GES1, GES-1 gastric mucosal epithelial cell, read-out: GC50 (the source's name).
Excerpt: as §1, §2

Regarding `NC(=O)c1cccc(-c2cnc3[nH]cc(-c4ccsc4)c3c2)c1` [Compound 13], on CDK8, the inhibition at 0.2 µM is 70.4 ± 3.6%. Further, the IC50 against CDK8 was determined as 0.0657 ± 0.0031 µM; in the test on molm-13, 0.16 ± 0.02 µM; in the test with MV4-11, 0.36 ± 0.12 µM; with MGC-803 it was 9.19 ± 2.42 µM; in the test on MDA-MB-231, 31.5 ± 1.27 µM; in the test with A375 it was 0.95 ± 0.52 µM. Moreover, the IC50 with A549 was found to be 21.8 ± 1.66 µM; in the test with HCT-116, 2.48 ± 0.99 µM; in the test on SW480, 5.45 ± 2.82 µM; with HT-29 it was 9.31 ± 1.67 µM; in the test with GES-1, 24.2 ± 3.62 µM.
Regarding `NC(=O)c1cccc(-c2cnc3[nH]cc(-c4cccc(Cl)c4)c3c2)c1` [Compound 30], the inhibition at 0.2 µM on CDK8 came out at 65.5 ± 3.8%. For the same molecule, the IC50 against CDK8 is 0.0867 ± 0.0065 µM; in the test on molm-13 it was over 50 µM; in the test on MV4-11, over 50 µM; in the test on MGC-803, over 50 µM; with MDA-MB-231, over 50 µM; with A375 it was over 50 µM. Besides, the IC50 with A549 is over 50 µM; in the test on HCT-116 it was over 50 µM; with SW480 it was over 50 µM; in the test on HT-29, over 50 µM; in the test on GES-1, over 100 µM.
Take `Cc1c(Br)c(Br)c2c3c1nc(N1CCNCC1)n3CCC2` [SEL-120-34A, reference compound]: the inhibition at 0.2 µM at CDK8 is 82.5 ± 5.8%. Further, the IC50 came out at 0.0372 ± 0.0025 µM against CDK8; 0.02 ± 0.01 µM with molm-13; 0.007 ± 0.001 µM with MV4-11; 16.3 ± 1.86 µM in the test on MGC-803; 9.6 ± 0.81 µM in the test on MDA-MB-231; 5.9 ± 1.43 µM in the test with A375. Further, the IC50 in the test with A549 amounted to 12.1 ± 0.37 µM; in the test on HCT-116, 11.3 ± 1.9 µM; with SW480, 17.7 ± 2.1 µM; in the test on HT-29 it was 33.8 ± 1.4 µM; with GES-1, 55.3 ± 3.2 µM.
